Laboratory results reported in patent US8071587B2, “(Dihydro)imidazoiso[5,1-A]quinolines” (N. V. Organon, priority 2009, dated 2011).
Where a name gives a salt, the structure may show the parent alone.

melting point [°C] | Structure (SMILES)
115 to 117 | C=CCN1CCN(C(=O)c2nc(-c3cccs3)c3n2CCc2cc(OC)c(OC(C)C)cc2-3)CCC1=O (as salt: salt) [Example 28, 4-Allyl-1-(9-isopropoxy-8-methoxy-1-thiophen-2-yl-5,6-dihydro-imidazo[5,1-a]isoquinoline-3-carbonyl)-[1,4]diazepan-5-one]
160 to 161 | COc1cc2c(cc1Br)-c1c(-c3cccs3)nc(C(=O)N(C)C(C)(C)C)n1CC2 [Example 1j, 9-Bromo-8-methoxy-1-thiophen-2-yl-5,6-dihydro-imidazo[5,1-a]isoquinoline-3-carboxylic acid tert-butyl-methyl-amide]
176 to 177 | COc1cc2c(cc1-c1ccccn1)-c1c(-c3cccs3)nc(C(=O)N(C)C(C)(C)C)n1CC2 [Example 2b, 8-Methoxy-9-pyridin-2-yl-1-thiophen-2-yl-5,6-dihydro-imidazo[5,1-a]isoquinoline-3-carboxylic acid tert-butyl-methyl-amide]
161 to 162 | COc1cc2c(cc1-c1cccc(F)n1)-c1c(-c3cccs3)nc(C(=O)N(C)C(C)(C)C)n1CC2 [Example 2c, 9-(6-Fluoro-pyridin-2-yl)-8-methoxy-1-thiophen-2-yl-5,6-dihydro-imidazo[5,1-a]isoquinoline-3-carboxylic acid tert-butyl-methyl-amide]
123 | COc1cc2c(cc1-c1cccc(NC(C)=O)c1)-c1c(-c3cccs3)nc(C(=O)N(C)C(C)(C)C)n1CC2 [Example 2f, 9-(3-Acetylamino-phenyl)-8-methoxy-1-thiophen-2-yl-5,6-dihydro-imidazo[5,1-a]isoquinoline-3-carboxylic acid tert-butyl-methyl-amide]
180 | COc1cc2c(cc1-c1cccc(-n3cccn3)c1)-c1c(-c3cccs3)nc(C(=O)N(C)C(C)(C)C)n1CC2 [Example 2g, 8-Methoxy-9-(3-pyrazol-1-yl-phenyl)-1-thiophen-2-yl-5,6-dihydro-imidazo[5,1-a]isoquinoline-3-carboxylic acid tert-butyl-methyl-amide]
85 to 90 | COc1cc2c(cc1-c1cccc(N3CCOCC3)c1)-c1c(-c3cccs3)nc(C(=O)N(C)C(C)(C)C)n1CC2 [Example 2h, 8-Methoxy-9-(3-morpholin-4-yl-phenyl)-1-thiophen-2-yl-5,6-dihydro-imidazo[5,1-a]isoquinoline-3-carboxylic acid tert-butyl-methyl-amide]
165 | COc1cc2c(cc1-c1cccc(F)c1)-c1c(-c3cccs3)nc(C(=O)N(C)C(C)(C)C)n1CC2 [Example 2i, 9-(3-Fluoro-phenyl)-8-methoxy-1-thiophen-2-yl-5,6-dihydro-imidazo[5,1-a]isoquinoline-3-carboxylic acid tert-butyl-methyl-amide]
213 | COc1cc2c(cc1-c1cccc(N)c1)-c1c(-c3cccs3)nc(C(=O)N(C)C(C)(C)C)n1CC2 [Example 2k, 9-(3-Amino-phenyl)-8-methoxy-1-thiophen-2-yl-5,6-dihydro-imidazo[5,1-a]isoquinoline-3-carboxylic acid tert-butyl-methyl-amide]
149 | COc1cc2c(cc1-c1cccc(N(C)C)c1)-c1c(-c3cccs3)nc(C(=O)N(C)C(C)(C)C)n1CC2 [Example 2l, 9-(3-Dimethylamino-phenyl)-8-methoxy-1-thiophen-2-yl-5,6-dihydro-imidazo[5,1-a]isoquinoline-3-carboxylic acid tert-butyl-methyl-amide]
183 to 184 | COc1cc2c(cc1-c1c(C)noc1C)-c1c(-c3cccs3)nc(C(=O)N(C)C(C)(C)C)n1CC2 [Example 2m, 9-(3,5-Dimethyl-isoxazol-4-yl)-8-methoxy-1-thiophen-2-yl-5,6-dihydro-imidazo[5,1-a]isoquinoline-3-carboxylic acid tert-butyl-methyl-amide]
151 | COc1cc2c(cc1-c1cccc(C(=O)N(C)C)c1)-c1c(-c3cccs3)nc(C(=O)N(C)C(C)(C)C)n1CC2 [Example 2n, 9-(3-Dimethylcarbamoyl-phenyl)-8-methoxy-1-thiophen-2-yl-5,6-dihydro-imidazo[5,1-a]iso-quinoline-3-carboxylic acid tert-butyl-methyl-amide]
216 | COc1cc2c(cc1-c1cccc(S(C)(=O)=O)c1)-c1c(-c3cccs3)nc(C(=O)N(C)C(C)(C)C)n1CC2 [Example 2p, 9-(3-Methanesulfonyl-phenyl)-8-methoxy-1-thiophen-2-yl-5,6-dihydro-imidazo[5,1-a]isoquinoline-3-carboxylic acid tert-butyl-methyl-amide]
188 to 189 | COc1ccccc1-c1cc2c(cc1OC)CCn1c(C(=O)N(C)C(C)(C)C)nc(-c3cccs3)c1-2 [Example 2q, 8-Methoxy-9-(2-methoxy-phenyl)-1-thiophen-2-yl-5,6-dihydro-imidazo[5,1-a]isoquinoline-3-carboxylic acid tert-butyl-methyl-amide]
162 | COc1cc2c(cc1-c1ccc3c(c1)OCO3)-c1c(-c3cccs3)nc(C(=O)N(C)C(C)(C)C)n1CC2 [Example 2r, 9-Benzo[1,3]dioxol-5-yl-8-methoxy-1-thiophen-2-yl-5,6-dihydro-imidazo[5,1-a]isoquinoline-3-carboxylic acid tert-butyl-methyl-amide]
154 to 156 | COc1cc2c(cc1C(=O)Nc1nncs1)-c1c(-c3cccs3)nc(C(=O)N(C)C(C)(C)C)n1CC2 [Example 3e, 8-Methoxy-1-thiophen-2-yl-5,6-dihydro-imidazo[5,1-a]isoquinoline-3,9-dicarboxylic acid 3-(tert-butyl-methyl-amide) 9-[1,3,4]thiadiazol-2-ylamide]
238 to 240 | CCc1nnc(NC(=O)c2cc3c(cc2OC)CCn2c(C(=O)N(C)C(C)(C)C)nc(-c4cccs4)c2-3)s1 [Example 4, 8-Methoxy-1-thiophen-2-yl-5,6-dihydro-imidazo[5,1-a]isoquinoline-3,9-dicarboxylic acid 3-(tert-butyl-methyl-amide) 9-[(5-ethyl-[1,3,4]thiadiazol-2-yl)-amide]]
197 to 198 | COc1cc2c(cc1C(=O)NC(C)C)-c1c(-c3cccs3)nc(C(=O)N(C)C(C)(C)C)n1CC2 [Example 5, 8-Methoxy-1-thiophen-2-yl-5,6-dihydro-imidazo[5,1-a]isoquinoline-3,9-dicarboxylic acid 3-(tert-butyl-methyl-amide) 9-isopropylamide]
159 to 161 | COc1cc2c(cc1NC(=O)c1cccnc1)-c1c(-c3cccs3)nc(C(=O)N(C)C(C)(C)C)n1CC2 [Example 9, 8-Methoxy-9-[(pyridine-3-carbonyl)-amino]-1-thiophen-2-yl-5,6-dihydro-imidazo[5,1-a]isoquinoline-3-carboxylic acid tert-butyl-methyl-amide]
185 to 186 | COc1cc2c(cc1NC(=O)c1nccs1)-c1c(-c3cccs3)nc(C(=O)N(C)C(C)(C)C)n1CC2 [Example 10, 8-Methoxy-9-[(thiazole-2-carbonyl)-amino]-1-thiophen-2-yl-5,6-dihydro-imidazo[5,1-a]isoquinoline-3-carboxylic acid tert-butyl-methyl-amide]
240 to 242 | COc1cc2c(cc1NC(=O)c1cscn1)-c1c(-c3cccs3)nc(C(=O)N(C)C(C)(C)C)n1CC2 [Example 11, 8-Methoxy-9-[(thiazole-4-carbonyl)-amino]-1-thiophen-2-yl-5,6-dihydro-imidazo[5,1-a]isoquinoline-3-carboxylic acid tert-butyl-methyl-amide]
210 to 212 | COc1cc2c(cc1NC(=O)c1csnn1)-c1c(-c3cccs3)nc(C(=O)N(C)C(C)(C)C)n1CC2 [Example 12, 8-Methoxy-9[([1,2,3]thiadiazole-4-carbonyl)-amino]-1-thiophen-2-yl-5,6-dihydro-imidazo[5,1-a]isoquinoline-3-carboxylic acid tert-butyl-methyl-amide]
121 to 123 | COc1cc2ccn3c(C(=O)N(C)C(C)(C)C)nc(-c4cccs4)c3c2cc1C=C(C)C [Example 16e, 8-Methoxy-9-(2-methyl-propenyl)-1-thiophen-2-yl-imidazo[5,1-a]isoquinoline-3-carboxylic acid tert-butyl-methyl-amide]
239 to 241 | COc1cc2ccn3c(C(=O)N(C)C(C)(C)C)nc(-c4cccs4)c3c2cc1-c1cnn(C)c1 [Example 17b, 8-Methoxy-9-(1-methyl-1H-pyrazol-4-yl)-1-thiophen-2-yl-imidazo[5,1-a]isoquinoline-3-carboxylic acid tert-butyl-methyl-amide]
124 | COc1cc2c(cc1CC(C)C)-c1c(-c3cccs3)nc(C(=O)N(C)C(C)(C)C)n1CC2 [Example 18k, 9-Isobutyl-8-methoxy-1-thiophen-2-yl-5,6-dihydro-imidazo[5,1-a]isoquinoline-3-carboxylic acid tert-butyl-methyl-amide]
126 | CC(C)Cc1ccc2c(c1)-c1c(-c3cccs3)nc(C(=O)N(C)C(C)(C)C)n1CC2 [Example 20b, 9-Isobutyl-1-thiophen-2-yl-5,6-dihydro-imidazo[5,1-a]isoquinoline-3-carboxylic acid tert-butyl-methyl-amide]
178 to 186 | CCN(C(=O)c1nc(-c2cccs2)c2n1CCc1cc(OC)c(OCCO)cc1-2)C(C)(C)C [Example 34b, 9-(2-Hydroxy-ethoxy)-8-methoxy-1-thiophen-2-yl-5,6-dihydro-imidazo[5,1-a]isoquinoline-3-carboxylic acid tert-butyl-ethyl-amide]
147 to 148 | COc1cc2c(cc1CC(C)C)-c1c(-c3ncco3)nc(C(=O)N(C)C(C)(C)C)n1CC2 [Example 37f, 9-Isobutyl-8-methoxy-1-oxazol-2-yl-5,6-dihydro-imidazo[5,1-a]isoquinoline-3-carboxylic acid tert-butyl-methyl-amide]
144 to 145 | COc1cc2c(cc1CC(C)C)-c1c(-c3cncs3)nc(C(=O)N(C)C(C)(C)C)n1CC2 [Example 38, 9-Isobutyl-8-methoxy-1-thiazol-5-yl-5,6-dihydro-imidazo[5,1-a]isoquinoline-3-carboxylic acid tert-butyl-methyl-amide]
